Where a name gives a salt, the structure may show the parent alone.
Test system: tryptase purified from human lung or skin tissue preparations or human mast cell line (HMC-1)
Test: In vitro Tryptase Inhibition Assay
Format: biochemical
Conditions: substrate tosyl-Gly-Pro-Lys-p-nitroanilide; Tris-HCl pH 8.2; zinc chloride 150 μM; 1 hour preincubation at room temperature; read-out: Ki (apparent inhibition constant, tryptase inhibitory activity)
Description: Tryptase solution ([…]) was prepared by dissolving tryptase purified from human lung or skin tissue preparations or human mast cell line (HMC-1) or obtained from commercial sources, e.g., ICN Biomeidals, Irvine, Calif., Athens Research & Technology, Athens, Ga., etc., in a solvent mixture comprising: 10 mM 2-N-morpholinoethane sulfonic acid, 2 mM CaCl2, 20% glycerol and 50 µg/mL heparin. Substrate solution containing 2 mM synthetic tripeptide (tosyl-Gly-Pro-Lys-p-nitroanilide) was obtained from Sigma. Test Compound solutions were prepared by diluting a stock solution (1 mg of test Compound in 200 μL of dimethylsulfoxide (DMSO)) by ten-fold into assay buffer (comprising: Tris-HCl (pH 8.2), 50 mM; NaCl, 100 MM; 0.05% polyoxyethylenesorbitan monolaurate (Tween-20®); and zinc chloride, 150 μM) and then making seven additional three-fold dilutions into 10% DMSO in assay buffer.
Aliquots (50 μL) from each of the eight dilutions of test compound solution were added to separate wells in a 96-well U-bottom microtiter plate. Typtase solution (25 μL) was added to each well and the solutions were mixed 1 hour at room temperature. Substrate solution (25 μL) was added to initiate the enzymatic reaction and the microtiter plates were immediately transferred to a UVIMAX Kinetic Microplate Reader (Molecular Devices). The hydrolysis of the chromogenic substrate was followed spectrophotometrically at 405 nanometers for five minutes. Initial velocity measurements were calculated from the progress curves by kinetic analysis program (BatchKi; Petr Kuzmic, University of Wisconsin, Madison, Wis.). Apparent inhibition constants (K) were calculated from the enzyme progress curves using standard mathematical models.

Molecule	Ki [nM]
COc1ccccc1OCCNC(=O)c1ccc2nc(C(C)c3nc4cc(O)ccc4[nH]3)n(C)c2c1 (stereo not drawn) [Compound 30, 2-[1-(5-Hydroxy-1H-benzoimidazol-2-yl)ethyl]-N-[2-(2-methoxyphenoxy)ethyl]-3-methyl-3H-benzoimidazole-5-carboxamide]	9
Cn1c(Cc2nc3c([nH]2)CCN(C=N)C3)nc2ccc(C(=O)NCCc3cccc4ccccc34)cc21 [Compound 117, 2-(5-iminomethyl-4,5,6,7-tetrahydro-1H-imidazo[4,5-c]pyridin-2-ylmethyl)-3-methyl-N-(2-naphth-1-ylethyl)-3H-benzoimidazole-5-carboxamide]	8
Cn1c(Cc2nc3cc(CN)ccc3[nH]2)nc2cc(C(=O)NCCCN)ccc21 [Compound 12, 2-(5-Aminomethyl-1H-benzoimidazol-2-ylmethyl)-N-(3-aminopropyl)-1-methyl-1H-benzoimidazole-5-carboxamide]	29000
2-(5-Guanidino-1H-benzoimidazol-2-ylmethyl)-N-(2-naphthalen-1-ylethyl)-3-methyl-3H-benzoimidazole-5-carboxyamide [Compound 28]	0.07
N=C(N)Nc1ccc2[nH]c(Cc3nc4ccc(C(=O)NCCc5cccc6ccccc56)cc4n3CCCO)nc2c1 [Compound 138, 2-(5-guanidino-1H-benzoimidazol-2-ylmethyl)-3-(3-hydroxy)propyl-N-(2-naphth-1-ylethyl)-3H-benzoimidazole-5-carboxamide]	0.2
CC(c1nc2cc(F)c(F)cc2[nH]1)c1nc2ccc(C(=O)NCCOc3ccccc3C(=O)O)cc2n1C (stereo not drawn) [Compound 81, 2-(2-{2-[1-(5,6-difluoro-1H-benzoimidazol-2-yl)ethyl]-3-methyl-3H-benzoimidazol-5-ylcarbonylamino}ethoxy)benzoic acid]	10
CCOC(=O)c1ccccc1OCCNC(=O)c1ccc2nc(C(C)c3nc4cc(OC(=O)OC)ccc4n3C(=O)C(C)C)n(C)c2c1 (stereo not drawn) [Compound 84, Ethyl 2-(2-{2-[1-(1-isobutyryl-5-methoxycarbonyloxy-1H-benzoimidazol-2-yl)ethyl]-3-methyl-3H-benzoimidazol-5-ylcarbonylamino}ethoxy)benzoate]	2600
CC(c1nc2c(F)cc(F)c(F)c2[nH]1)c1nc2ccc(C(=O)NCCOc3ccccc3C(=O)O)cc2n1C (stereo not drawn) [Compound 80, 2-(2-{2-[1-(4,6,7-Trifluoro-1H-benzoimidazol-2-yl)ethyl]-3-methyl-3H-benzoimidazol-5-ylcarbonylamino}ethoxy)benzoic acid]	10
CC(C)COC(=O)c1ccccc1OCCNC(=O)c1ccc2nc(C(C)c3nc4cc(O)ccc4[nH]3)n(C)c2c1 (stereo not drawn) [Compound 43, isobutyl 2-(2-{2-[1-(5-hydroxy-1H-benzoimidazol-2-yl)ethyl]-3-methyl-3H-benzoimidazol-5-ylcarbonylamino}ethoxy)benzoate]	2
N=C(N)Nc1ccc2[nH]c(Cc3nc4ccc(C(=O)NCCc5cccc6ccccc56)cc4n3CCO)nc2c1 [Compound 152, 2-(5-guanidino-1H-benzoimidazol-2-ylmethyl)-3-(2-hydroxy)ethyl-N-(2-naphth-1-ylethyl)-3H-benzoimidazole-5-carboxamide]	0.5
CC(c1nc2cc(NC(=N)N)ccc2[nH]1)c1nc2ccc(C(=O)NCCOc3cc(Cl)ccc3C(=O)O)cc2n1C (stereo not drawn) [Compound 251, 4-chloro-2-(2-{2-[1-(5-guanidino-1H-benzoimidazol-2-yl)ethyl]-3-methyl-3H-benzoimidazol-5-ylcarbonylamino}ethoxy)benzoic acid]	0.8
CCOC(=O)c1ccccc1OCCNC(=O)N1CCc2[nH]c(C(C)c3nc4c([nH]3)CCN(C(C)=N)C4)nc2C1 (stereo not drawn) [Compound 203, ethyl 2-[2-(2-{1-[5-(1-iminoethyl)-4,5,6,7-tetrahydro-1H-imidazo[4,5-c]pyridin-2-yl]ethyl}-1,4,6,7-tetrahydroimidazo[4,5-c]pyridin-5-ylcarbonylamino)ethoxy]benzoate]	8
Cn1c(Cc2nc3cc(CN)ccc3[nH]2)nc2ccc(C(=O)NCCc3cccc4ccccc34)cc21 [Compound 102, 2-(5-aminomethyl-1H-benzoimidazol-2-ylmethyl)-3-methyl-N-(2-naphth-1-ylethyl)-3H-benzoimidazole-5-carboxamide]	0.07
COCCn1c(C(C)c2nc3c([nH]2)CCN(C(C)=N)C3)nc2ccc(C(=O)NCCOc3ccccc3C(=O)O)cc21 (stereo not drawn) [Compound 194, 2-[2-(2-{1-[5-(1-iminoethyl)-4,5,6,7-tetrahydro-1H-imidazo [4,5-c]pyridin-2-yl]ethyl)-3-(2-methoxyethyl)-3H-benzoimidazol-5-ylcarbonylamino)ethoxy]benzoic acid]	9
CCOC(=O)c1ccccc1OCCNC(=O)c1ccc2nc(C(C)c3nc4c(F)cc(F)c(F)c4[nH]3)n(C)c2c1 (stereo not drawn) [Compound 75, ethyl 2-(2-{2-[1-(4,6,7-trifluoro-1H-benzoimidazol-2-yl)ethyl]-3-methyl-3H-benzoimidazol-5-carbonylamino}ethoxy}benzoate]	30
CC(c1nc2cc(NC(=N)N)ccc2[nH]1)c1nc2ccc(C(=O)NCCOc3ccc(Cl)cc3C(N)=O)cc2n1C (stereo not drawn) [Compound 250, 2-[1-(5-guanidino-1H-benzoimidazol-2-yl)ethyl]-N-[2-(2-carbamoyl-4-chlorophenoxy)ethyl]-3-methyl-3H-benzoimidazole-5-carboxamide]	0.4
NCc1ccc2[nH]c(Cc3nc4cc(C(=O)NCCCCc5ccccc5)ccc4[nH]3)nc2c1 [Compound 1, 2-(5-Aminomethyl-1H-benzoimidazol-2-ylmethyl)-N-(4-phenylbutyl)-1H-benzoimidazole-5-carboxamide trifluoroacetate]	90
N=C(N)Nc1ccc2[nH]c(C(=O)c3nc4ccc(C(=O)NCCc5cccc6ccccc56)cc4n3CC(O)CO)nc2c1 (stereo not drawn) [Compound 134, 2-(5-guanidino-1H-benzoimidazol-2-ylcarbonyl)-3-(2,3-dihydroxy)propyl-N-(2-naphth-1-ylethyl)-3H-benzoimidazole-5-carboxamide]	0.02
CC(=N)N1CCc2[nH]c(Cc3nc4ccc(C(=O)NCCc5ccc(O)c6ccccc56)cc4n3C)nc2C1 [Compound 128, 2-[5-(1-iminoethyl)-4,5,6,7-tetrahydro-1H-imidazo[4,5-c]pyridin-2-ylmethyl]-3-methyl-N-[2-(4-hydroxynaphthal-1-yl)ethyl]-3H-benzoimidazole-5-carboxamide]	2
CC(=N)N1CCc2[nH]c(C(C)c3nc4ccc(C(=O)NCCOc5ccccc5C(=O)O)cc4n3C)nc2C1 (stereo not drawn) [Compound 74, 2-[2-(2-{1-[5-(1-iminoethyl)-4,5,6,7-tetrahydro-1H-imidazo[4,5-c]pyridin-2-yl]ethyl}-3-methyl-3H-benzoimidazol-5-ylcarbonylamino)ethoxy]benzoic acid]	6
NCc1ccc2[nH]c(Cc3nc4cc(NC(=O)OCCc5ccccc5)ccc4[nH]3)nc2c1 [Compound 27, 2-Phenylethyl 2-(5-aminomethyl-1H-benzoimidazol-2-ylmethyl)-1H-benzoimidazole-5-carbamate trifluoroacetate]	600
CC(=N)N1CCc2[nH]c(C(=O)c3nc4ccc(C(=O)NCCc5cccc6ccccc56)cc4n3C)nc2C1 [Compound 116, 2-[5-(1-iminoethyl)-4,5,6,7-tetrahydro-1H-imidazo[4,5-c]pyridin-2-ylcarbonyl]-3-methyl-N-(2-naphth-1-ylethyl)-3H-benzoimidazole-5-carboxamide]	6
CC(c1nc2cc(NC(=N)N)ccc2[nH]1)c1nc2ccc(C(=O)NCCOc3ccccc3C(N)=O)cc2n1C (stereo not drawn) [Compound 249, 2-[1-(5-guanidino-1H-benzoimidazol-2-yl)ethyl]-N-[2-(2-carbamoylphenoxy)ethyl]-3-methyl-3H-benzoimidazole-5-carboxamide]	0.7
NCc1ccc2[nH]c(Cc3nc4cc(OCCCCc5ccccc5)ccc4[nH]3)nc2c1 [Compound 26, C-{2-[5-(4-phenylbutoxy)-1H-benzoimidazol-2-ylmethyl]-1H-benzoimidazol-5-yl}methylamine]	33000
CC(=N)N1CCc2[nH]c(Cc3nc4ccc(C(=O)NCC(O)c5cccc6ccccc56)cc4n3C)nc2C1 (stereo not drawn) [Compound 126, 2-[5-(1-iminoethyl)-4,5,6,7-tetrahydro-1H-imidazo[4,5-c]pyridin-2-ylmethyl]-3-methyl-N-(2-hydroxy-2-naphth-1-ylethyl)-3H-benzoimidazole-5-carboxamide]	8
CCCCOC(=O)c1ccccc1OCCNC(=O)c1ccc2nc(C(C)c3nc4cc(O)ccc4[nH]3)n(C)c2c1 (stereo not drawn) [Compound 37, butyl 2-(2-{2-[l-(5-hydroxy-1H-benzoimidazol-2-yl)ethyl]-3-methyl-3H-benzoimidazol-5-ylcarbonylamino}ethoxy)benzoate]	2
CCOC(=O)c1ccccc1CCCC(=O)N1CCc2[nH]c(C(C)c3nc4cc(NC(=N)N)ccc4[nH]3)nc2C1 (stereo not drawn) [Compound 29, Ethyl 2-(4-{2-[1-(5-guanidino-1H-benzoimidazol-2-yl)ethyl]-1,4,6,7-tetrahydroimidazo[4,5-c]pyridin-5-yl}-4-oxobutyl)benzoate]	0.8
